ChEMBL document CHEMBL4725453, “Modulation of Androgen Receptor for Therapeutic Application in Cancer and Viral Infection” (ACS Med Chem Lett, 2020)

molecular target: T1, Androgen receptor (Homo sapiens, UniProt P10275); assay: Modulation of AR in human LNCAP cells transfected with PSA reporter gene assessed as inhibition of R1881-induced PSA luciferase activity pretreated for 1 hr followed by R1881 addition and measured after 24 hrs by luciferase assay; format: cell-based
T1 sequence (P10275 whole entry): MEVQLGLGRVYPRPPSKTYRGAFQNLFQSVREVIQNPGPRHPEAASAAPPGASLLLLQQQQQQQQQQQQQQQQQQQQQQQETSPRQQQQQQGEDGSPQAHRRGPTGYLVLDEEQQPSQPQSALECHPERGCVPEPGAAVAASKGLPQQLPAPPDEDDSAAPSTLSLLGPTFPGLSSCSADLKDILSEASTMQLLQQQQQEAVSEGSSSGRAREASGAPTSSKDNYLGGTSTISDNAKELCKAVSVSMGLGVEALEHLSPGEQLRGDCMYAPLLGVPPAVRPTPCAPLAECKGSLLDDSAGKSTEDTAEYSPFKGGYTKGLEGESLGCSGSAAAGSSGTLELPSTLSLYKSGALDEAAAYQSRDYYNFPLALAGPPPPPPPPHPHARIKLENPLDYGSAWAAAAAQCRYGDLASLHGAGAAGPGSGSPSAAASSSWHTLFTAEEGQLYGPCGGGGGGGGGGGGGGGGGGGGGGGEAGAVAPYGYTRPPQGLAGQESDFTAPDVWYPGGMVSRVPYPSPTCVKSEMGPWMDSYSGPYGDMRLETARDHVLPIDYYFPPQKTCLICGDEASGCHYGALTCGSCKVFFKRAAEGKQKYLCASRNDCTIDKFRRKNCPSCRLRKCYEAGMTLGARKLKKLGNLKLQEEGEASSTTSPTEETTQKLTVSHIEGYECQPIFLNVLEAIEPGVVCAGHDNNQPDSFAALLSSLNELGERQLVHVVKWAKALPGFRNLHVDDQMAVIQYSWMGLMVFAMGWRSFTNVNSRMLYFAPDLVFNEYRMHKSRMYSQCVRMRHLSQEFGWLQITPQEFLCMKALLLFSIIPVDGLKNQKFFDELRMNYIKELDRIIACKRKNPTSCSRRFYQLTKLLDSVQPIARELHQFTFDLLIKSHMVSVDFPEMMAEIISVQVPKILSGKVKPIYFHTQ

Structure (SMILES)	IC50 [nM]
CC(C)(c1ccc(OCc2ccnc(NS(C)(=O)=O)n2)cc1)c1cc(F)c(OCCCl)c(Cl)c1	500
CC(C)S(=O)(=O)Nc1nc(COc2ccc(C(C)(C)c3cc(Cl)c(OCCCl)c(C#N)c3)cc2)co1	500
CC(C)(c1ccc(OCc2cnc(NS(C)(=O)=O)o2)cc1)c1cc(Cl)c(OCCCl)c(C#N)c1	< 500
CC(C)(c1ccc(OCc2ccnc(NS(C)(=O)=O)n2)cc1)c1cc(Cl)c(OCCCl)c(Cl)c1	< 500
CC(C)(c1ccc(OCc2cnc(Cl)o2)cc1)c1cc(Cl)c(OCCCl)c(C#N)c1	< 500
CC(C)S(=O)(=O)c1nc(COc2ccc(C(C)(C)c3cc(Cl)c(OCCCl)c(C#N)c3)cc2)co1	< 500

Now from value to compound:

IC50 [nM]	Structure (SMILES)
< 500	Cc1cnc(NS(C)(=O)=O)nc1COc1ccc(C(C)(C)c2cc(Cl)c(OCCCl)c(C#N)c2)cc1
< 500	CC(C)(c1ccc(OCc2ncc(NS(C)(=O)=O)s2)cc1)c1cc(Cl)c(OCCCl)c(C#N)c1
< 500	CC(C)(c1ccc(OCc2cnc(NS(C)(=O)=O)nc2)cc1)c1cc(Cl)c(OCCCl)c(C#N)c1
< 500	Cc1nc(NS(C)(=O)=O)nc(COc2ccc(C(C)(C)c3cc(Cl)c(OCCCl)c(C#N)c3)cc2)c1C
< 500	CSc1nc(C)c(COc2ccc(C(C)(C)c3cc(Cl)c(OCCCl)c(C#N)c3)cc2)o1
< 500	CC(C)(c1ccc(OCc2nc(NS(C)(=O)=O)cs2)cc1)c1cc(Cl)c(OCCCl)c(C#N)c1
